The subject of data set [1] is PAO1 biofilm. In words: Crystal violet dye based biofilm inhibition assay, maltose derivatives (Example 1). The following applies: for Inhibition of PAO1 biofilm: 110 μM, 24 h, CV assay; for IC50: CV dye based assay. The class given is cell-based, Pseudomonas aeruginosa. As to the method: (§1) A crystal violet (CV) assay was used to measure the amount of PAO1 biofilm formed after 24 h of bacterial inoculation. The fluorescence of green fluorescent proteins (GFP) expressed by PAO1-GFP was measured to directly quantify bacterial adhesion on polystyrene black 96 well plates with and without maltose derivatives after 2 h of bacterial inoculation. To evaluate the potential of maltose derivatives as both anti-biofilm and anti-adhesion agents, they were compared to a brominated furanone (BF8) known to inhibit biofilm formation, and two generic surfactants, sodium dodecyl sulfate (SDS) and tetra (ethylene glycol) monododecyl ether (C12EG4OH). […] P. aeruginosa strain PAO1-EGFP that constitutively producing green fluorescent protein was allowed to form biofilm on sterile steel coupons.
Inhibitory effect of all the maltose hydrocarbons on P. aeruginosa biofilm formation was determined by crystal violet dye based biofilm inhibition assays. Overnight culture of wild type P. aeruginosa (PAO1) was sub cultured to an OD600 of 0.01 into the 95:5 M9+:Lb medium. 200 μL of the sub culture was aliquoted into the wells of 96 well polystyrene microtiter plate when it reached the OD600 of 0.1. Predetermined concentrations of the test compounds were then added to the respective wells containing sub culture. Sample plates were wrapped in GLAD Press n′ Seal® followed by incubation under stationary conditions for 24 h at 37° C. After incubation the media was discarded and the plates were washed with water and dried for 1 h at 37° C. The sample plates were stained with 200 μL of 0.1% aqueous solution of crystal violet (CV) and followed by incubation at ambient temperature for 20 min. The CV stain was then discarded and the plates were washed with water. The remaining biofilm adhered stain was re-solubilized with 200 μL of 30% acetic acid. After the stain was dissolved (15 minutes), 100 μL of the solubilized CV was transferred from each well into the corresponding wells of a new polystyrene microtiter dish. Biofilm inhibition was quantified by measuring the OD600 of each well in which a negative control lane wherein no biofilm was formed served as a background and was subtracted out. The percent inhibition was calculated by the comparison of the OD600 for biofilm grown in the absence of compound (control) versus biofilm grown in the presence of compound under identical conditions.
(§2) Predetermined amounts maltose derivatives stock solution was added to the 200 μL bacterial culture in 96 well plate so that the final concentration of the agent reaches the desired values of 1, 5, 10, 20, 40, 85, 113, 140 μM. Biofilm inhibition and dispersion assay was carried as described previously.

The subject of data set [2] is nonswarming P. aeruginosa mutant rhlA. The experiment in a line: Swarming motility of nonswarming rhlA mutant on soft agar (reactivation / agonist assay). The class given is cell-based, Pseudomonas aeruginosa. The following applies: for Swarming motility of rhlA mutant: 85 μM in soft agar (0.5%), 24 h. The method in brief: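 rhlA transposon mutant of PAO1 (3 μl, OD600 0.4–0.6) inoculated on M8 soft agar (0.2% glucose, 0.5% casamino acids, 1 mM MgSO4, 0.5% agar) with test compound to find swarming agonists. Incubated 12 h at 37 °C plus 12 h at room temperature; swarm area measured by weighing paper cut-outs of imaged swarms.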

Data set [3] concerns PAO1-GFP. In words: microbe, parasite or virus in culture. The class given is cell-based, Pseudomonas aeruginosa. The procedure:
as §1
Overnight culture of PAO1-GFP was subcultured to an OD600 of 0.01 into the 95:5 M9+:Lb medium. Subculture was allowed to reach the OD600 of 0.1 in a rotary shaker at 250 rpm and 37° C. 200 μL of the subculture was then transferred to the wells of black microtiter plate with and without (control) maltose derivatives. This black 96 well plate was then incubated in a shaker at 37° C. for 2 h. After 2 h, bacterial culture from the plate was discarded and each well was washed once with saline water (0.85 w/v % aqueous NaCl solution). Fresh 95:5 M9+:Lb medium was added to the black 96 well plate and fluorescence of the surface adhered bacteria was measured by Synergy 2 multi-mode microplate reader with Gen5 data analysis software at an excitation wavelength of 500 nm and an emission wavelength of 540 nm. Background signal from 95:5 M9+:Lb medium was eliminated from all the samples.

For data set [4], the system named is 24 h old PAO1 biofilm. In words: Crystal violet biofilm dispersion assay, maltose derivatives (Example 1). The data set is classed as cell-based, Pseudomonas aeruginosa. The following applies: for DC50: 24 h old biofilm, read-out: Biofilm dispersion DC50 (half-maximal dispersion). As to the method:
Chemical dispersion of already formed biofilm is often more relevant to medical application, and more challenging than biofilm inhibition assays, for which the agents are introduced at the onset of an experiment. We screened the ability of maltose derivatives at 110 μM to disperse 24 h old biofilm.
PAO1 was allowed to grow for 24 h at 37° C. After 24 h, bacterial culture was pipetted out and replaced with 200 μL of 110 μM maltose hydrocarbons and sterile water (control). After 1 h treatment with maltose hydrocarbons, biofilm was fixed and quantified using crystal violet dye as described above. The amount of dispersed biofilm was determined via comparison of the amount of biofilm at 24 h in the presence of maltose hydrocarbons versus the amount of biofilm in the “no compound” positive control at 24 h (wells with water treatment).
as §2

The nature of data set [5]: Solubility in water.
Procedure: Stock solution of disaccharide hydrocarbons (DSHs). Stock solution (˜11.5 mM) of all synthesized and commercially available DSHs were prepared in autoclaved water and further sterilized by filtering through cellulose acetate syringe filter (0.2 μm pore size, GVS filter technology) into sterilized vials. The vials containing sterilized DSHs stocks were capped and stored at −20° C. and thawed prior to each use. Appropriate volume of sterile water was added to positive controls (no agents) in all assays to eliminate the effect of water. Stock solution of DβL (7), SFβL (15) and 2-ODαC (17) were prepared in sterile water and 200 proof EtOH in 90:10 ratio. For positive controls involving DβL (7), SFβL (15) and 2-ODαC (17) appropriate volumes of 90:10, H2O:EtOH was added.
Data set [6] has as its system PAO1-EGFP. The experiment in a line: Fluorescence adhesion assay on polystyrene, DSHs (Examples 2 and 4). The following applies: 160 μM. The class given is cell-based, Pseudomonas aeruginosa. As to the method:
The ability of DSHs was tested to inhibit Pseudomonas aeruginosa adhesion, biofilm and to disperse pre-formed biofilm. To quantify the amount of PAO1/EGFP attached on the surface of micro titer plates with or without the synthesized DSHs, fluorescence emitted by green fluorescent proteins (GFP) was quantified (see supporting info for details). Crystal violet (CV) based static biofilm assay (see supporting info) was used to screen the anti-biofilm potencies of all synthesized agents. Both surface attached (SA) (FIG. 17) and total (SA+air-liquid interface) biofilm of P. aeruginosa was quantified. […] CV assays were also used to quantify the amount of P. aeruginosa biofilm remaining after dispersion experiments (FIG. 19). Initially, all agents were screen for anti-biofilm activities (both inhibition and dispersion) at 160 μM. […]
The effect that DSHs have on the adhesion of PAO1-EGFP on polystyrene surface (microtiter plate) was also examined. […] After 24-hours, the fluorescent signal obtained from surface adhered PAO1-EGFP was measured. Percent reduction in fluorescence was calculated by comparing fluorescent signal from PAO1-EGFP grown in LB-media with the signal from wells that had DSHs (FIG. 29A). […] After 24 hours, the surface attached biofilms adhering to the bottom of the wells were stained with crystal-violet dye and the biofilm was quantified by measuring absorbance at 600 nm (OD600). […]

Data set [7] relates to PAO1 biofilm. The experiment in a line: Crystal violet based static biofilm inhibition assay, DSHs in LB media (Examples 2 and 4). The data set is classed as cell-based, Pseudomonas aeruginosa. The method in brief: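 PAO1 subculture (OD600 ~0.1) was grown statically in LB at 37° C for 24 h with or without DSHs (screened at 160 μM). Surface-attached biofilm was then stained with 0.1% crystal violet, solubilised in 30% AcOH and read at 600 nm. Values are the mean of 4 wells.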

In data set [8] the test system is wild type PAO1. In words: Swarming motility of wild type PAO1 on soft agar (antagonist assay). The class given is cell-based, Pseudomonas aeruginosa. The essentials:
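Wild-type PAO1 culture (OD600 ~0.4–0.6, 3 μl) spotted on M8 swarm agar with 0.2% glucose, 0.5% casamino acids, 1 mM MgSO4 and 0.5% agar. Plates incubated 12 h at 37 °C then 12 h at room temperature; swarm area measured by cutting and weighing printed plate images.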

Data set [9] relates to Pseudomonas aeruginosa strain PAO1-BAA-47. The experiment in a line: Mouse P. aeruginosa pneumonia model. The data set is classed as in vivo. Particulars: SP-A/D KO mice.

“Also recorded” adds a separate entry of the source. Where two headings read alike, the source gives them in different places.

In the case of 12-hydroxy decyl β-maltose [12-HODeβM], the “Inhibition of PAO1 biofilm” value in data set [1] is reported as “about 30%”; in [1] (listed as HODeβM), 32%. The “Swarming motility of rhlA mutant” value in [2] was “did not exhibit any significant activation of swarming”. In data set [3] (85 μM, 2 h), the “Inhibition of PAO1-EGFP adhesion on polystyrene” value was “about 7%”.

For `CC1=C(Br)/C(=C/Br)OC1=O` [BF8], the “Inhibition of PAO1 biofilm” value in [1] is recorded as “about 35%”. In addition, the “Inhibition of PAO1 adhesion on polystyrene” value in data set [3] (100 μM) was “showed no inhibition; also recorded: does not inhibit the adhesion”.

By IC50 is commonly meant the point on the concentration scale where inhibition reaches its midpoint. Low values mean higher potency, high ones lower potency. With `O=C(c1ccccc1)c1ccc(COCCCCCCCCCCO[C@@H]2O[C@H](CO)[C@@H](O[C@H]3O[C@H](CO)[C@@H](O)[C@H](O)[C@H]3O)[C@H](O)[C@H]2O)cc1` [BPDeβM, benzophenonyl decyl β-maltoside], the IC50 in data set [1] was 22.5 µM. Besides, the “Swarming motility of rhlA mutant” value in data set [2] is recorded as “swarming motility with without well-defined tendrils”. In addition, the DC50 in data set [4] amounted to 31 µM.

For `CCCCCCCCCCCC[N+](C)(C)C.[Cl-]` [DTAC, dodecyl trimethyl ammonium chloride, reference compound], the “Anti-biofilm activity (inhibition)” value in data set [1] (concentration not given) was “did not show any anti-biofilm activities”. Besides, in data set [2] (concentration not given), the “Reactivation of swarming motility of rhlA mutant” value is recorded as “did not promote or reactivate”. In addition, in data set [4] (concentration not given), the “Anti-biofilm activity (dispersion)” value was “did not show any anti-biofilm activities”.

For the molecule `CC(C)CCCC(C)CCCC(C)CCO[C@@H]1O[C@H](CO)[C@@H](O[C@@H]2O[C@H](CO)[C@H](O)[C@H](O)[C@H]2O)[C@H](O)[C@H]1O` (stereo partly drawn) [SFβL (15), saturated famesyl-β-lactoside], the values for the Solubility in water result in data set [5] and in data set [5] (listed as 15: SFβL) were “poor water-solubility” and “poor solubility in water; also recorded: not soluble in either water or in water/EtOH mixture”, respectively.

As for `CCCCCCCCCCCCO[C@@H]1O[C@@H](C)[C@H](O)[C@@H](O)[C@H]1O` [DαR (9), dodecyl-α-rhamnoside], the “Adhesion inhibition of PAO1-EGFP on polystyrene” value in data set [6] came out at 63%. Besides, the “Swarming motility of rhlA mutant” value in data set [2] is “no apparent effect on rhlA”. The “Inhibition of PAO1 biofilm formation (surface attached)” value in [7] (160 μM, 24 h, LB media, listed as 8: DαR, 160 µM) is reported as “poor anti-biofilm activity”. Moreover, the “Anti-biofilm activity (biofilm inhibition)” value in [7] (concentration not given) is listed as “weak anti-biofilm activity”. The “Swarming motility of wild type PAO1” value in data set [8] (85 μM in soft agar, 24 h) was “inhibited the swarming motility of wild type PAO1”. Further, the “Effect on PAO1 swarming” value in data set [8] (concentration not given) was “PAO1 swarming inhibitors”.

Consider `CCCCCCCCCCCCO[C@@H]1O[C@H](CO)[C@@H](O[C@H]2O[C@H](CO)[C@@H](O)[C@H](O)[C@H]2O)[C@H](O)[C@H]1O` [DM, Dodecyl Maltoside], for which, in data set [9] (50 μl of 170 μM intratracheal 24 h after infection, sacrifice 24 h later), the “CFU number in the lung” value is recorded as “significantly decreased CFU number in the lung”. Further, the “Lung inflammation (histology, H&E)” value in [9] (50 μl of 170 μM intratracheal) is recorded as “improved the lung inflammation”.

In [1], benzyl dodecyl β-maltoside [BDβM] displayed an IC50 of 27.5 µM. Moreover, the “Swarming motility of rhlA mutant” value in data set [2] is recorded as “swarming motility with without well-defined tendrils”. For the same molecule, the DC50 in data set [4] was 32 µM.

The values above are taken from patent US11357786B2, “Synthetic disugar hydrocarbons as natural analogs to control microbial behaviors” (Syracuse University, priority 2014, dated 2022).
